Measurements as given in patent EP0160546A2, “Cephalosporin compounds, and their production, and medicaments containing them” (YAMANOUCHI PHARMACEUTICAL CO. LTD., priority 1984, dated 1985).
Converted amounts (≈) assume the structure as drawn. Where two headings read alike, the source gives them in different places.

How the values were obtained:
[1] = tested on: Staph. epidermidis IID 866; test: Antibacterial activity (minimum effective inhibitory concentration); type: cell-based; conditions: Staphylococcus epidermidis, IID866, read-out: minimum effective inhibitory concentrations
From the text: (§1) Antibacterial activities (minimum effective inhbitory concentrations) of compounds of formula I (taken from the following Examples) are shown in the following Table.

[2] = tested on: Ps. aeruginosa NCTC 10490; test: as above; type: cell-based; conditions: Pseudomonas aeruginosa, NCTC10490, read-out: minimum effective inhibitory concentrations
From the text: as §1

[3] = tested on: Serr. marcescense NY-10; test: as above; type: cell-based; conditions: read-out: minimum effective inhibitory concentrations
From the text: as §1

[4] = tested on: E. coli NIHJ; test: as above; type: cell-based; conditions: Escherichia coli, read-out: minimum effective inhibitory concentrations
From the text: as §1

[5] = tested on: Kleb. pneumoniae ATCC 10031; test: as above; type: cell-based; conditions: Klebsiella pneumoniae, ATCC10031, read-out: minimum effective inhibitory concentrations
From the text: as §1

[6] = Solubility in water; type: physicochemical

SMILES	MIC [1] [µg/mL]	MIC [2] [µg/mL]	MIC ([3]; Serr. marcescense NY-10) [µg/mL]	MIC ([4]; E. coli NIHJ) [µg/mL]	MIC [5] [µg/mL]	solubility [6] [mg/mL]	MIC [3] [µg/mL]	MIC [4] [µg/mL]
CO/N=C(\C(=O)N[C@@H]1C(=O)N2C(C(=O)[O-])=C(C[n+]3ccc(OC)c(N)c3)CS[C@H]12)c1csc(N)n1 [Example 5, (Z)-7-[α-(2-amino-4-thiazolyl)-α-methoxyiminoacetamido,]-3-(3-amino-4-methoxypyridiniomethyl)-Δ^3-cephem-4-carboxylate]	0.2 (≈ 0.385 µM)	1.56 (≈ 3 µM)	< 0.2	< 0.2	< 0.2	> 230		
CON=C(C(=O)NC1C(=O)N2C(C(=O)[O-])=C(C[n+]3ccc4c(c3)N(OC)C(=O)CO4)CSC12)c1csc(N)n1 (stereo not drawn) [Example 10]	6.25 (≈ 10.9 µM)	0.39 (≈ 0.678 µM)	0.2 (≈ 0.347 µM)	< 0.2	< 0.2			
CON=C(C(=O)NC1C(=O)N2C(C(=O)[O-])=C(C[n+]3ccc(N)c(N)c3)CSC12)c1csc(N)n1 (stereo not drawn) [Example 3, (Z)-7-[λ-(2-amino-4-thiazolyl)-λ-(methoxyimino)acetamido]-3-(3,4-diamino-1-pyridiniomethyl)-Δ^3-cephem-4-carboxylate]	0.2 (≈ 0.396 µM)	1.56 (≈ 3.09 µM)	< 0.2	< 0.2	< 0.2			
CO/N=C(\C(=O)N[C@@H]1C(=O)N2C(C(=O)[O-])=C(C[n+]3ccc(OCC(O)CO)c(N)c3)CS[C@H]12)c1csc(N)n1 (stereo partly drawn) [Example 6, (Z ) -7-[α-(2-amino-4-thiazolyl)-α-methoxyiminoacetamido]-3-[3-amino-4-(2,3-dihydroxypropyloxy)pyridiniomethyl]-Δ^3-cephem-4-carboxylate]	0.78 (≈ 1.35 µM)	1.56 (≈ 2.69 µM)	< 0.2	< 0.2	< 0.2			
CON=C(C(=O)NC1C(=O)N2C(C(=O)[O-])=C(C[n+]3ccc4c(c3)NC(=O)CO4)CSC12)c1csc(N)n1 (stereo not drawn) [Example 11, (Z)-7-[α-(2-amino-4-thiazolyl)-α-methoxyimino-acetamido]-3-[[6-(3-oxo-3,4-dihydro-2H-pyrido[4,3-b]-1,4-oxazinio)]methyl -Δ^3-cephem-4-carboxylate]	0.78 (≈ 1.43 µM)	1.56 (≈ 2.86 µM)	< 0.2	< 0.2	< 0.2			
CO/N=C(\C(=O)N[C@@H]1C(=O)N2C(C(=O)[O-])=C(C[n+]3ccc(C)c(N)c3)CS[C@H]12)c1csc(N)n1 [Example 9, (Z)-1-[α-(2-amino-4-thiazolyl)-α-methoxyiminoacet--amido]-3-(3-amino-4-methylpyridiniomethyl)-Δ^3-cephem-4-carboxylic acid]	0.2 (≈ 0.397 µM)	1.56 (≈ 3.1 µM)	< 0.2	< 0.2	< 0.2			
CON=C(C(=O)NC1C(=O)N2C(C(=O)[O-])=C(C[n+]3ccc4c(c3)NCCO4)CSC12)c1csc(N)n1 (stereo not drawn) [Example 13, (Z)-7-[α-(2-amino-4-thiazolyl) -α-methoxyiminoacetamido]-3-[[6-(3,4-dihydro-2H-pyrido[4,3-b1-1,4-oxazinio)]methyl]-Δ^3-cephem-4-carboxylate]	0.39 (≈ 0.734 µM)	0.78 (≈ 1.47 µM)	< 0.2	< 0.2	< 0.2			
CC(C)(ON=C(C(=O)NC1C(=O)N2C(C(=O)[O-])=C(C[n+]3cc(N)cc(N)c3)CSC12)c1csc(N)n1)C(=O)O (stereo not drawn) [Example 2, (Z)-7-[λ-(2-amino-4 thiazolyl)-λ-(1-carboxy-1-methylethoxyimino)acetamido]--3-(3,5-diamino-1-pyridiniomethyl)-Δ^3-cephem-4-carboxylate]	1.56 (≈ 2.71 µM)	0.39 (≈ 0.676 µM)	< 0.2	< 0.2	< 0.2			
CC(C)(O/N=C(\C(=O)N[C@@H]1C(=O)N2C(C(=O)[O-])=C(C[n+]3ccccc3)CS[C@H]12)c1csc(N)n1)C(=O)O [cefta-zidime, reference compound]	3.13 (≈ 5.73 µM)	0.78 (≈ 1.43 µM)			< 0.2		< 0.2	< 0.2
CON=C(C(=O)NC1C(=O)N2C(C(=O)[O-])=C(C[n+]3ccc4c(c3)N(O)C(=O)CO4)CSC12)c1csc(N)n1 (stereo not drawn) [Example 12, (Z)-7-[α-(2-amino-4-thiazolyl)-α-methoxyiminoacetamido]-3-[[6-(4-hydroxy-3-oxo-3,4-dihydro-2H-pyrido[4,3-b]-1,4-oxazinio)]methyl]-Δ^3-cephem-4-carboxylate]	1.56 (≈ 2.78 µM)	1.56 (≈ 2.78 µM)	< 0.2	< 0.2	< 0.2			
